Drawing on patent US6900206B2, “Indole, azaindole and related heterocyclic sulfonylureido piperazine derivatives” (priority 2002, dated 2005), this text covers EC50 for twelve molecules.

By EC50 is commonly meant the concentration that produces a half-maximal response.

Some results are limits rather than exact numbers.

This experiment has as its system HIV-1 single-round infectious reporter virus. Description: microbe, parasite or virus in culture. The settings on record: Human immunodeficiency virus 1, HeLa, 72 h, read-out: EC50 Group from Table 1. The class given is cell-based. The protocol: • Virus production—Human embryonic Kidney cell line, 293T, was propagated in Dulbecco's Modified Eagle Medium (Invitrogen, Carlsbad, Calif.) containing 10% fetal Bovine serum (FBS, Sigma, St. Louis, Mo.). • Virus infection—Human epithelial cell line, HeLa, expressing the HIV-1 receptor CD4 was propagated in Dulbecco's Modified Eagle Medium (Invitrogen, Carlsbad, Calif.) containing 10% fetal Bovine serum (FBS, Sigma, St. Louis, Mo.) and supplemented with 0.2 mg/mL Geneticin (Invitrogen, Carlsbad, Calif.). Virus—Single-round infectious reporter virus was produced by co-transfecting human embryonic Kidney 293 cells with an HIV-1 envelope DNA expression vector and a proviral cDNA containing an envelope deletion mutation and the luciferase reporter gene inserted in place of HIV-1 nef sequences (Chen et al, Ref. 41). Transfections were performed using lipofectAMINE PLUS reagent as described by the manufacturer (Invitrogen, Carlsbad, Calif.). Experiment • 1. HeLa CD4 cells were plated in 96 well plates at a cell density of 1×10^4 cells per well in 100 μl Dulbecco's Modified Eagle Medium containing 10% fetal Bovine serum and incubated overnight. • 2. Compound was added in a 2 μl dimethylsulfoxide solution, so that the final assay concentration would be ≦10 μM. • 3. 100 μl of single-round infectious reporter virus in Dulbecco's Modified Eagle Medium was then added to the plated cells and compound at an approximate multiplicity of infection (MOI) of 0.01, resulting in a final volume of 200 μl per well. • 4. Virally-infected cells were incubated at 37 degrees Celsius, in a CO2 incubator, and harvested 72 h after infection. • 5. Viral infection was monitored by measuring luciferase expression from viral DNA in the infected cells using a luciferase reporter gene assay kit, as described by the manufacturer (Roche Molecular Biochemicals, Indianapolis, Ind.). Infected cell supernatants were removed and 50 μl of lysis buffer was added per well. After 15 minutes, 50 μl of freshly-reconstituted luciferase assay reagent was added per well. Luciferase activity was then quantified by measuring luminescence using a Wallac microbeta scintillation counter. • 6. […] An EC50 provides a method for comparing the antiviral potency of the compounds of this invention. The effective concentration for fifty percent inhibition (EC50) was calculated with the Microsoft Excel Xlfit curve fitting software. For each compound, curves were generated from percent inhibition calculated at 10 different concentrations by using a four paramenter logistic model (model 205). Table 1 is the key for the data in Table 2. Results
In the case of `CNC(=O)c1ccc(F)c2c(C(=O)C(=O)N3CCN(S(=O)(=O)N(C)C)CC3)c[nH]c12` [Example 1], the 50% effective concentration (EC50) is less than 1 µM.
Under `CNC(=O)c1ccc(F)c2c(C(=O)C(=O)N3CCN(S(=O)(=O)Nc4ccccc4)CC3)c[nH]c12` [Example 2] stands 1 to 5 µM.
Under `CNC(=O)c1ccc(F)c2c(C(=O)C(=O)N3CCN(S(=O)(=O)N4CCOCC4)CC3)c[nH]c12` [Example 3] stands greater than 5 µM; under `CNC(=O)c1ccc(F)c2c(C(=O)C(=O)N3CCN(S(=O)(=O)NC)CC3)c[nH]c12` [Example 4], greater than 5 µM.
The figure for `COC(=O)c1ccc(F)c2c(C(=O)C(=O)N3CCN(S(=O)(=O)N(C)C)CC3)c[nH]c12` [Example 5] is greater than 5 µM.
For `COC(=O)c1ccc(F)c2c(C(=O)C(=O)N3CCN(S(=O)(=O)N4CCC4)CC3)c[nH]c12` [Example 6], the half-maximal effective concentration (EC50) is greater than 5 µM.
The figure for `COC(=O)c1ccc(F)c2c(C(=O)C(=O)N3CCN(S(=O)(=O)N4CCCCC4)CC3)c[nH]c12` [Example 7] is 1 to 5 µM; for `CCN(CC)S(=O)(=O)N1CCN(C(=O)C(=O)c2c[nH]c3c(C(=O)OC)ccc(F)c23)CC1` [Example 8] it is 1 to 5 µM.
Turning to `CNC(=O)c1ccc(F)c2c(C(=O)C(=O)N3CCN(S(=O)(=O)N4CCCCC4)CC3)c[nH]c12` [Example 9], the half-maximal effective concentration (EC50) was in the range of 1 to 5 µM.
Under `CNC(=O)c1ccc(F)c2c(C(=O)C(=O)N3CCN(S(=O)(=O)N4CCC4)CC3)c[nH]c12` [Example 10] stands greater than 5 µM.
Under `CCN(CC)S(=O)(=O)N1CCN(C(=O)C(=O)c2c[nH]c3c(C(=O)NC)ccc(F)c23)CC1` [Example 11] stands 1 to 5 µM; under `CN(C)S(=O)(=O)N1CCN(C(=O)C(=O)c2c[nH]c3c(-n4cncn4)ncc(F)c23)CC1` [Example 12], less than 1 µM.
